From patent US10793568B2, “Hormone receptor modulators for treating metabolic conditions and disorders” (ARDELYX, INC., priority 2016, dated 2020)

Columns and labels:
[1] = molecular target: human Farnesoid X receptor ligand-binding domain/Gal4 DNA binding domain chimera (Homo sapiens (Human), UniProt Q96RI1); experiment: Cell-based assay of FXR activation (FXR-UAS-bla HEK 293T beta-lactamase reporter); settings: cellular FXR beta-lactamase reporter assay; for Emax: HEK-293T, extent of activation relative to GW4064, read-out: % Efficacy; for EC50: FXR-UAS-bla HEK 293T cells, 16 h, pEC50 = -log EC50
Chain of human Farnesoid X receptor ligand-binding domain/Gal4 DNA binding domain chimera (Q96RI1 262-486, change not shown): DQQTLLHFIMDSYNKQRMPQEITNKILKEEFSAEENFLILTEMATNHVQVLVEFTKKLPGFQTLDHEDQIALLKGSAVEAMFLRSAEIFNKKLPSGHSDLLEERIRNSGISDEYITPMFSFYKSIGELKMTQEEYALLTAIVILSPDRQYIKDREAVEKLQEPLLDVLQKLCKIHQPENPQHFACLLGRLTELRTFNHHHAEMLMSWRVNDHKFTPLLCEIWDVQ
Chain of human Farnesoid X receptor ligand-binding domain/Gal4 DNA binding domain chimera (P04386 1-147 partner): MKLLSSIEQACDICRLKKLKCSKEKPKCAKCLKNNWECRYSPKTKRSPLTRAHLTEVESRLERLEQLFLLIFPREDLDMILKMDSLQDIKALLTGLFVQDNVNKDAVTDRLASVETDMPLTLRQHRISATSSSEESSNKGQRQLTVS
Outline: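 HEK 293T cells stably expressing a Gal4-fused human FXR LBD and a UAS-driven beta-lactamase reporter were incubated with serially diluted compounds for 16 h at 37 °C in phenol red-free DMEM with 2% charcoal-stripped FBS. CCF4 FRET read-out: excitation 409 nm, emission 447 nm. pEC50 comes from a 3-parameter logistic fit, and efficacy is given as % of GW4064.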

[2] = molecular target: ligand binding domain of human FXR (Homo sapiens (Human), UniProt Q96RI1); experiment: FXR ligand binding assay (LanthaScreen TR-FRET, SRC2-2 peptide recruitment); settings: for pEC50: -log EC50, concentration required to produce 50% activation; for Emax: extent of activation relative to GW4064, read-out: % Efficacy
Chain of ligand binding domain of human FXR (Q96RI1 262-486): as the sequence (Q96RI1 262-486, change not shown) above

## O=C(NS(=O)(=O)C1CC1)c1ccc([N+]2([O-])C[C@@H]3C[C@H]2C[C@H]3OCc2c(-c3c(Cl)cccc3Cl)noc2C2CC2)cc1 (stereo partly drawn) [Compound I-234, (1S,4S,5R)-2-{4-[(cyclopropanesulfonyl)carbamoyl]phenyl}-5-{[5-cyclopropyl-3-(2,6-dichlorophenyl)-1,2-oxazol-4-yl]methoxy}-2-azabicyclo[2.2.1]heptan-2-ium-2-olate]
[1]
  Emax: 102%
  EC50: 1.58 nM
[2]
  pEC50: 8.1
  Emax: 146%

## O=C(CCc1ccc(N2C[C@@H]3C[C@H]2C[C@H]3OCc2c(-c3c(F)cccc3Cl)noc2C2CC2)c(F)c1)NS(=O)(=O)C1CCOCC1 [Compound I-235, 3-{4-[(1S,4S,5R)-5-{[3-(2-chloro-6-fluorophenyl)-5-cyclopropyl-1,2-oxazol-4-yl]methoxy}-2-azabicyclo[2.2.1]heptan-2-yl]-3-fluorophenyl}-N-(oxane-4-sulfonyl)propanamide]
[1]
  Emax: 94%
  EC50: 3.98 nM
[2]
  pEC50: 8.2
  Emax: 176%

## CS(=O)(=O)NC(=O)CCc1ccc(N2C[C@@H]3C[C@H]2C[C@H]3OCc2c(-c3c(Cl)cccc3Cl)noc2C2CC2)c(F)c1 [Compound I-236, 3-(4-((1S,4S,5R)-5-((5-cyclopropyl-3-(2,6-dichlorophenyl)isoxazol-4-yl)methoxy)-2-azabicyclo[2.2.1]heptan-2-yl)-3-fluorophenyl)-N-(methylsulfonyl)propanamide]
[1]
  Emax: 95%
  EC50: 2.51 nM
[2]
  pEC50: 8.4
  Emax: 156%

## O=C(CCc1ccc(N2C[C@@H]3C[C@H]2C[C@H]3OCc2c(-c3c(Cl)cccc3Cl)noc2C2CC2)c(F)c1)NS(=O)(=O)C1CC1 [Compound I-237, 3-(4-((1S,4S,5R)-5-((5-cyclopropyl-3-(2,6-dichlorophenyl)isoxazol-4-yl)methoxy)-2-azabicyclo[2.2.1]heptan-2-yl)-3-fluorophenyl)-N-(cyclopropylsulfonyl)propanamide]
[1]
  Emax: 94%
  EC50: 2.51 nM
[2]
  pEC50: 8.7
  Emax: 162%

## O=C(CCc1ccc(N2C[C@@H]3C[C@H]2C[C@H]3OCc2c(-c3c(Cl)cccc3Cl)noc2C2CC2)c(F)c1)NS(=O)(=O)C1CCOCC1 [Compound I-238, 3-(4-((1S,4S,5R)-5-((5-cyclopropyl-3-(2,6-dichlorophenyl)isoxazol-4-yl)methoxy)-2-azabicyclo[2.2.1]heptan-2-yl)-3-fluorophenyl)-N-((tetrahydro-2H-pyran-4-yl)sulfonyl)propanamide]
[1]
  Emax: 95%
  EC50: 2.51 nM
[2]
  pEC50: 8.6
  Emax: 176%

## CS(=O)(=O)NC(=O)CCc1ccc(N2C[C@@H]3C[C@H]2C[C@H]3OCc2c(-c3c(F)cccc3Cl)noc2C2CC2)c(F)c1 [Compound I-239, 3-(4-((1S,4S,5R)-5-((3-(2-chloro-6-fluorophenyl)-5-cyclopropylisoxazol-4-yl)methoxy)-2-azabicyclo[2.2.1]heptan-2-yl)-3-fluorophenyl)-N-(methylsulfonyl)propanamide]
[1]
  Emax: 94%
  EC50: 7.94 nM
[2]
  pEC50: 8.2
  Emax: 176%

## O=C(CCc1ccc(N2C[C@@H]3C[C@H]2C[C@H]3OCc2c(-c3c(F)cccc3Cl)noc2C2CC2)c(F)c1)NS(=O)(=O)C1CC1 [Compound I-240, 3-(4-((1S,4S,5R)-5-((3-(2-chloro-6-fluorophenyl)-5-cyclopropylisoxazol-4-yl)methoxy)-2-azabicyclo[2.2.1]heptan-2-yl)-3-fluorophenyl)-N-(cyclopropylsulfonyl)propanamide]
[1]
  Emax: 92%
  EC50: 6.31 nM
[2]
  pEC50: 8.1
  Emax: 162%

## Cc1cccc(Cl)c1-c1noc(C2CC2)c1CO[C@@H]1C[C@@H]2C[C@H]1CN2c1ccc(CCC(=O)NS(C)(=O)=O)cc1F [Compound I-241, 3-(4-((1S,4S,5R)-5-((3-(2-chloro-6-methylphenyl)-5-cyclopropylisoxazol-4-yl)methoxy)-2-azabicyclo[2.2.1]heptan-2-yl)-3-fluorophenyl)-N-(methylsulfonyl)propanamide]
[1]
  Emax: 98%
  EC50: 10 nM
[2]
  pEC50: 8
  Emax: 176%

## Cc1cccc(Cl)c1-c1noc(C2CC2)c1CO[C@@H]1C[C@@H]2C[C@H]1CN2c1ccc(CCC(=O)NS(=O)(=O)C2CC2)cc1F [Compound I-242, 3-(4-((1S,4S,5R)-5-((3-(2-chloro-6-methylphenyl)-5-cyclopropylisoxazol-4-yl)methoxy)-2-azabicyclo[2.2.1]heptan-2-yl)-3-fluorophenyl)-N-(cyclopropylsulfonyl)propanamide]
[1]
  Emax: 97%
  EC50: 10 nM
[2]
  pEC50: 8.2
  Emax: 182%

## Cc1cccc(Cl)c1-c1noc(C2CC2)c1CO[C@@H]1C[C@@H]2C[C@H]1CN2c1ccc(CCC(=O)NS(=O)(=O)C2CCOCC2)cc1F [Compound I-243, 3-(4-((1S,4S,5R)-5-((3-(2-chloro-6-methylphenyl)-5-cyclopropylisoxazol-4-1)methoxy)-2-azabicyclo[2.2.1]heptan-2-yl)-3-fluorophenyl)-N-((tetrahydro-2H-pyran-4-yl)sulfonyl)propanamide]
[1]
  Emax: 98%
  EC50: 6.31 nM
[2]
  pEC50: 8.4
  Emax: 182%

## O=C(O)c1ccc(N2C(=O)[C@@H]3C[C@H]2C[C@H]3OCc2c(-c3c(Cl)cccc3Cl)noc2C2CC2)cc1 [Compound I-244, 4-[(1S,4R,5R)-5-{[5-cyclopropyl-3-(2,6-dichlorophenyl)-1,2-oxazol-4-yl]methoxy}-3-oxo-2-azabicyclo[2.2.1]heptan-2-yl]benzoic Acid]
[1]
  Emax: 102%
  EC50: 2 nM
[2]
  pEC50: 8.4
  Emax: 130%

## O=C(O)c1ccc(N2C(=O)[C@@H]3C[C@H]2C[C@@H]3OCc2c(-c3c(Cl)cccc3Cl)noc2C2CC2)cc1 [Compound I-245, 4-[(1S,4R,5S)-5-{[5-cyclopropyl-3-(2,6-dichlorophenyl)-1,2-oxazol-4-yl]methoxy}-3-oxo-2-azabicyclo[2.2.1]heptan-2-yl]benzoic Acid]
[1]
  Emax: 0%
  EC50: < 31.6 nM
[2]
  pEC50: >5.5

## CCc1cc(C(=O)O)cc2sc(N3C[C@@H]4C[C@H]3C[C@H]4OCc3c(-c4c(Cl)cccc4Cl)noc3C3CC3)nc12 [Compound I-246, 2-[(1S,4S,5R)-5-{[5-cyclopropyl-3-(2,6-dichlorophenyl)-1,2-oxazol-4-yl]methoxy}-2-azabicyclo[2.2.1]heptan-2-yl]-4-ethyl-1,3-benzothiazole-6-carboxylic Acid]
[1]
  Emax: 113%
  EC50: 0.251 nM
[2]
  pEC50: 8.5
  Emax: 136%

## CC(C)c1cc(C(=O)O)cc2sc(N3C[C@@H]4C[C@H]3C[C@H]4OCc3c(-c4c(Cl)cccc4Cl)noc3C3CC3)nc12 [Compound I-247, 2-[(1S,4S,5R)-5-{[5-cyclopropyl-3-(2,6-dichlorophenyl)-1,2-oxazol-4-yl]methoxy}-2-azabicyclo[2.2.1]heptan-2-yl]-4-(propan-2-yl)-1,3-benzothiazole-6-carboxylic Acid]
[1]
  Emax: 114%
  EC50: 2 nM
[2]
  pEC50: 8.5
  Emax: 128%

## CC(C)(C)c1cc(C(=O)O)cc2sc(N3C[C@@H]4C[C@H]3C[C@H]4OCc3c(-c4c(Cl)cccc4Cl)noc3C3CC3)nc12 [Compound I-248, 4-tert-butyl-2-[(1S,4S,5R)-5-{[5-cyclopropyl-3-(2,6-dichlorophenyl)-1,2-oxazol-4-yl]methoxy}-2-azabicyclo[2.2.1]heptan-2-yl]-1,3-benzothiazole-6-carboxylic Acid]
[1]
  Emax: 112%
  EC50: 0.631 nM
[2]
  pEC50: 7.8
  Emax: 116%

## O=C(O)c1cc(C2CCC2)c2nc(N3C[C@@H]4C[C@H]3C[C@H]4OCc3c(-c4c(Cl)cccc4Cl)noc3C3CC3)sc2c1 [Compound I-249, 4-cyclobutyl-2-[(1S,4S,5R)-5-{[5-cyclopropyl-3-(2,6-dichlorophenyl)-1,2-oxazol-4-yl]methoxy}-2-azabicyclo[2.2.1]heptan-2-yl]-1,3-benzothiazole-6-carboxylic Acid]
[1]
  Emax: 114%
  EC50: 0.158 nM
[2]
  pEC50: 8.4
  Emax: 134%

## O=C(O)c1cc(C2CCCC2)c2nc(N3C[C@@H]4C[C@H]3C[C@H]4OCc3c(-c4c(Cl)cccc4Cl)noc3C3CC3)sc2c1 [Compound I-250, 4-cyclopentyl-2-[(1S,4S,5R)-5-{[5-cyclopropyl-3-(2,6-dichlorophenyl)-1,2-oxazol-4-yl]methoxy}-2-azabicyclo[2.2.1]heptan-2-yl]-1,3-benzothiazole-6-carboxylic Acid]
[1]
  Emax: 114%
  EC50: 0.501 nM
[2]
  pEC50: 7.8
  Emax: 128%

## O=C(O)c1cc(C2CCOC2)c2nc(N3C[C@@H]4C[C@H]3C[C@H]4OCc3c(-c4c(Cl)cccc4Cl)noc3C3CC3)sc2c1 (stereo partly drawn) [Compound I-251, 2-[(1S,4S,5R)-5-{[5-cyclopropyl-3-(2,6-dichlorophenyl)-1,2-oxazol-4-yl]methoxy}-2-azabicyclo[2.2.1]heptan-2-yl]-4-(oxolan-3-yl)-1,3-benzothiazole-6-carboxylic Acid]
[1]
  Emax: 110%
  EC50: 0.2 nM
[2]
  pEC50: 9.1
  Emax: 133%

## O=C(O)c1cc([C@@H]2CCOC2)c2nc(N3C[C@@H]4C[C@H]3C[C@H]4OCc3c(-c4c(Cl)cccc4Cl)noc3C3CC3)sc2c1 [Compound I-252, 2-[(1S,4S,5R)-5-{[5-cyclopropyl-3-(2,6-dichlorophenyl)-1,2-oxazol-4-yl]methoxy}-2-azabicyclo[2.2.1]heptan-2-yl]-4-[(3S)-oxolan-3-yl]-1,3-benzothiazole-6-carboxylic Acid]
[1]
  Emax: 107%
  EC50: 0.2 nM
[2]
  pEC50: 8.6
  Emax: 135%
